Experimental data taken from ChEMBL document CHEMBL1152499, “Novel l-adenosine analogs as cardioprotective agents” (2009).
Active and inactive are the calls of the source. No cut-off for these calls is given here.

Columns and labels:
Heart [1] = test: Cardioprotective activity in isolated Langendorff ischemia-reperfused Swiss Webster mouse heart assessed as prolongation of time to ischemic contracture; type: functional
Heart [2] = test: Cardioprotective activity in isolated Langendorff ischemia-reperfused Swiss Webster mouse heart assessed as total tissue necrotic area; type: functional
Heart [3] = test: Cardioprotective activity in isolated Langendorff ischemia-reperfused Swiss Webster mouse heart assessed as increase in functional recovery of contractility; type: tissue-based

| SMILES | Activity (Heart [1]) | Activity (Heart [2]) | Activity (Heart [3]) |
| --- | --- | --- | --- |
| Nc1ncnc2c1ncn2[C@@H]1O[C@H](CO)[C@@H](O)[C@H]1O [ADENOSINE] | 13.6 min | 11.5% | – |
| CNC(=O)[C@@H]1O[C@H](n2cnc3c(NC)ncnc32)[C@@H](O)[C@H]1N | inactive | inactive | inactive |
| CN(C)c1ncnc2c1ncn2[C@H]1O[C@@H](CO)[C@H](N)[C@@H]1O | 14.5 min | 19.1% | Active |
